Test results from ChEMBL document CHEMBL4002601, “A triple exon-skipping luciferase reporter assay identifies a new CLK inhibitor pharmacophore” (Bioorg Med Chem Lett, 2017).

Legend:
[1] = target: T1, Aurora kinase A (Homo sapiens) (UniProt O14965); assay: Inhibition of human Aurora-A using Kemptide as substrate in presence of [gamma-33P]ATP at 1 uM after 40 mins by scintillation counter method
T1 sequence (whole entry): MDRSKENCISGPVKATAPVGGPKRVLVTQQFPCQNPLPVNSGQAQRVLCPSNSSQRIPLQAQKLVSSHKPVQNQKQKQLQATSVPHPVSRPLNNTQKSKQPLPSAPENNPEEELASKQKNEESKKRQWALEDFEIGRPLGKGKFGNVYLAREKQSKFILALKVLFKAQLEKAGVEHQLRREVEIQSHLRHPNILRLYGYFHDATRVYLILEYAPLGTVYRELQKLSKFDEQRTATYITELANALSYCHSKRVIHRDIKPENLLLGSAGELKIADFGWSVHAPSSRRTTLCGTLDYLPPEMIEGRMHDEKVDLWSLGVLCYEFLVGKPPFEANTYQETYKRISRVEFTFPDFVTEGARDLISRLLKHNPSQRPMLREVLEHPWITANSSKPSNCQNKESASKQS

[2] = target: PI3-kinase p110-delta/p85-alpha (Homo sapiens) (UniProt P27986+O00329); assay: Inhibition of human PI3K p110delta/pI3K p85alpha at 1 uM using PIP2 as substrate in presence of biotinylated PIP3 and ATP and measured after 30 mins by HTRF method; type: protein-complex assay
[3] = target: Dual specificity tyrosine-phosphorylation-regulated kinase 1A (Homo sapiens) (UniProt Q13627); assay: Inhibition of human DYRK1A using RRRFRPASPLRGPPK as substrate in presence of [gamma-33P]ATP at 1 uM after 40 mins by scintillation counter method
[4] = target: PI3K p110 beta/p85 alpha (Homo sapiens) (UniProt P27986+P42338); assay: Inhibition of human PI3K p110beta/pI3K p85alpha at 1 uM using PIP2 as substrate in presence of biotinylated PIP3 and ATP and measured after 30 mins by HTRF method; type: protein-complex assay
[5] = target: Epidermal growth factor receptor (Homo sapiens) (UniProt P00533); assay: Inhibition of human EGFR using poly(Glu, Tyr) 4:1 as substrate in presence of [gamma-33P]ATP at 1 uM after 40 mins by scintillation counter method
Epidermal growth factor receptor (Homo sapiens), sequence (P00533 whole entry): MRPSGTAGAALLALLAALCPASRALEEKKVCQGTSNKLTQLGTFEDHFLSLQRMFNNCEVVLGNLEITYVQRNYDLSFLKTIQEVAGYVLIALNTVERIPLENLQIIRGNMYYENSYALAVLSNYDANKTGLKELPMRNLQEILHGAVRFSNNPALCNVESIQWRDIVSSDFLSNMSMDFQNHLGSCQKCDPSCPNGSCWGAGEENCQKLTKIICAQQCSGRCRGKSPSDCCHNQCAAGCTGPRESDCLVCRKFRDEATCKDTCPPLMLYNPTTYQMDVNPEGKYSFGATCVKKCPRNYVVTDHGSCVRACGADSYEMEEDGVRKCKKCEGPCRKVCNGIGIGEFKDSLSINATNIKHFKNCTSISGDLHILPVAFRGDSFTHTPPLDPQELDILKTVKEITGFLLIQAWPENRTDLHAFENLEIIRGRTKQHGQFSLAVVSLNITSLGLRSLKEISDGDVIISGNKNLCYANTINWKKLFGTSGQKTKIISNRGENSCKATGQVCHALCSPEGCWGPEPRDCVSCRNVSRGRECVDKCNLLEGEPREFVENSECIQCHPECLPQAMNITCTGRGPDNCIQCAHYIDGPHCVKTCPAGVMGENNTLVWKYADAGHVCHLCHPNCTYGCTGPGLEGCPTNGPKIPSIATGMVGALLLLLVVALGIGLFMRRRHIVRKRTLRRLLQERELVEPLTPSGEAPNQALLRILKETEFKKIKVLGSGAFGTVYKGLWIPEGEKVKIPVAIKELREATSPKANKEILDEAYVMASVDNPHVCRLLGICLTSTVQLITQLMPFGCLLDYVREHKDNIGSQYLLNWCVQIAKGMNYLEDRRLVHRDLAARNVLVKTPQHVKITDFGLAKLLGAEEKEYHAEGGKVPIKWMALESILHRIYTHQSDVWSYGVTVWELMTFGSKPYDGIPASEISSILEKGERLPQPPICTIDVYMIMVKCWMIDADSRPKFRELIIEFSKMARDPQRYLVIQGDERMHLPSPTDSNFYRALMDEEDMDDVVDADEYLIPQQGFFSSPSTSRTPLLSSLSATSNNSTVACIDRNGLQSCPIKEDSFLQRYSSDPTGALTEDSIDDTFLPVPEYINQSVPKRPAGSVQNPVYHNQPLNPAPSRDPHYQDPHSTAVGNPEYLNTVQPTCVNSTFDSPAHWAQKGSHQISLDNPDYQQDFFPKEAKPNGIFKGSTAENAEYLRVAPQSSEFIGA

[6] = target: Receptor tyrosine-protein kinase erbB-2 (Homo sapiens) (UniProt P04626); assay: Inhibition of human ErbB2 using poly(Glu, Tyr) as substrate in presence of [gamma-33P]ATP at 1 uM after 40 mins by scintillation counter method
Receptor tyrosine-protein kinase erbB-2 (Homo sapiens), sequence (P04626 whole entry): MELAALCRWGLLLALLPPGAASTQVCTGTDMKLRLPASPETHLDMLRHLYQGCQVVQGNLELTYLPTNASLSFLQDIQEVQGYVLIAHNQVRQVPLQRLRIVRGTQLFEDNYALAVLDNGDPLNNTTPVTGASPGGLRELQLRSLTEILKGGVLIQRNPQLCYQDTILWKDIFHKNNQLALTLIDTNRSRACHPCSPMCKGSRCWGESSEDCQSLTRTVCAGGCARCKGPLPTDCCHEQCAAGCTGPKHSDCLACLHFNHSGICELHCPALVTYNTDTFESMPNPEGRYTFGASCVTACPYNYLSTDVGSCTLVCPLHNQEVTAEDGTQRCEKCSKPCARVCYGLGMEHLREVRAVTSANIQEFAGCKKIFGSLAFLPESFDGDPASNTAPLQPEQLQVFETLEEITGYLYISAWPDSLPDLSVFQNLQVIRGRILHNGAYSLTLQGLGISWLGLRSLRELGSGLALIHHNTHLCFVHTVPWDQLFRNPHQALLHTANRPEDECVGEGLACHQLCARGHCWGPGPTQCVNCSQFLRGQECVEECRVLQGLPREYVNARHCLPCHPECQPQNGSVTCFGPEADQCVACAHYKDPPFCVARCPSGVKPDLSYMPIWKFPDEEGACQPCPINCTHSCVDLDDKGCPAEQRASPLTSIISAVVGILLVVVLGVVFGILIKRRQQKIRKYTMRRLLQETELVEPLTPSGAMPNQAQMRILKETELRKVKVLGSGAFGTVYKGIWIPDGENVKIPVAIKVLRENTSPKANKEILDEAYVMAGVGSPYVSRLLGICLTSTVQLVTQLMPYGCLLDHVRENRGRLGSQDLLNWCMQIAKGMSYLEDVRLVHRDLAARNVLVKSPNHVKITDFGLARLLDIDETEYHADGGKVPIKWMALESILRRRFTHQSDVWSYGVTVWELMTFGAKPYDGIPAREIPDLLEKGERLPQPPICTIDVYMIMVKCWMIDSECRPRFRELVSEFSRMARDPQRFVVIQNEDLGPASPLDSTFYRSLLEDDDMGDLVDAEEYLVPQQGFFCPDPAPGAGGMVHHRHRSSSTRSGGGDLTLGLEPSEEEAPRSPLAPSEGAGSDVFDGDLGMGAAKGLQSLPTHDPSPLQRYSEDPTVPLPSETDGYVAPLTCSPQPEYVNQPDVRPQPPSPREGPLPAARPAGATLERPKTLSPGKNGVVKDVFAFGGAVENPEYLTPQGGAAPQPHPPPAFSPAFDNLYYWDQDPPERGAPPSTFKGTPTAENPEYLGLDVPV

[7] = target: Dual specificity mitogen-activated protein kinase kinase 1 (Homo sapiens) (UniProt Q02750); assay: Inhibition of human MEK1 using inactive MAPK2 as substrate in presence of [gamma-33P]ATP at 1 uM after 40 mins by scintillation counter method
Dual specificity mitogen-activated protein kinase kinase 1 (Homo sapiens), sequence (Q02750 whole entry): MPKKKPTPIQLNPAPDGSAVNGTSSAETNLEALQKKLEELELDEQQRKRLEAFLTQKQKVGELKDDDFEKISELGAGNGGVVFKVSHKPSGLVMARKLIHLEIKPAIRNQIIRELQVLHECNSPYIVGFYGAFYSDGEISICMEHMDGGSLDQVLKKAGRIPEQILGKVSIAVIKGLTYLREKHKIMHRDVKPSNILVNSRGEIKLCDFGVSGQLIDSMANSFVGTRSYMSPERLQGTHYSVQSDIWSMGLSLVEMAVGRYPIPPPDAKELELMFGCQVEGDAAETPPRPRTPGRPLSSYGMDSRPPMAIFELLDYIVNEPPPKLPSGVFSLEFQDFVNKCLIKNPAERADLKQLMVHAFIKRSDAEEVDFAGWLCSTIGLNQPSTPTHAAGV

[8] = target: Tyrosine-protein kinase JAK2 (Homo sapiens) (UniProt O60674); assay: Inhibition of human JAK2 using KTFCGTPEYLAPEVRREPRILSEEEQEMFRDFDYIADWC as substrate in presence of [gamma-33P]ATP at 1 uM after 40 mins by scintillation counter method
[9] = target: Tyrosine-protein kinase ABL1 (Homo sapiens) (UniProt P00519); assay: Inhibition of human Abl using EAIYAAPFAKK as substrate in presence of [gamma-33P]ATP at 1 uM after 40 mins by scintillation counter method
[10] = target: Proto-oncogene tyrosine-protein kinase Src (Homo sapiens) (UniProt P12931); assay: Inhibition of human Src (1 to 530 residues) using GGEEEEYFELVKKKK as substrate in presence of [gamma-33P]ATP at 1 uM after 40 mins by scintillation counter method
[11] = target: Mitogen-activated protein kinase 8 (Homo sapiens) (UniProt P45983); assay: Inhibition of human JNK1alpha1 using ATF2 as substrate in presence of [gamma-33P]ATP at 1 uM after 40 mins by scintillation counter method
Mitogen-activated protein kinase 8 (Homo sapiens), sequence (P45983 whole entry): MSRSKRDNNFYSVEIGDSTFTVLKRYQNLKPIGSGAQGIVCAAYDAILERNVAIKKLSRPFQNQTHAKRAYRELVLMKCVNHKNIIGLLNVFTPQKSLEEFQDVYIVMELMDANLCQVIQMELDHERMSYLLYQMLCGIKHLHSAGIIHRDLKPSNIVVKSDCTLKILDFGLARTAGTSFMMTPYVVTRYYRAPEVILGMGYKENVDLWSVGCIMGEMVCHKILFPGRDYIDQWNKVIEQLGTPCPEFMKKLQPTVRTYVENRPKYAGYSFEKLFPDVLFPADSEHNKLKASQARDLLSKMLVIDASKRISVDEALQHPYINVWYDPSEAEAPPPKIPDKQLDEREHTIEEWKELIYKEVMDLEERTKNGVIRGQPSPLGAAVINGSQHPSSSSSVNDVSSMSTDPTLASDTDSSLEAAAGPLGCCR

[12] = target: Serine/threonine-protein kinase PLK1 (Homo sapiens) (UniProt P53350); assay: Inhibition of human Plk1 using casein as substrate in presence of [gamma-33P]ATP at 1 uM after 40 mins by scintillation counter method
Serine/threonine-protein kinase PLK1 (Homo sapiens), sequence (P53350 whole entry): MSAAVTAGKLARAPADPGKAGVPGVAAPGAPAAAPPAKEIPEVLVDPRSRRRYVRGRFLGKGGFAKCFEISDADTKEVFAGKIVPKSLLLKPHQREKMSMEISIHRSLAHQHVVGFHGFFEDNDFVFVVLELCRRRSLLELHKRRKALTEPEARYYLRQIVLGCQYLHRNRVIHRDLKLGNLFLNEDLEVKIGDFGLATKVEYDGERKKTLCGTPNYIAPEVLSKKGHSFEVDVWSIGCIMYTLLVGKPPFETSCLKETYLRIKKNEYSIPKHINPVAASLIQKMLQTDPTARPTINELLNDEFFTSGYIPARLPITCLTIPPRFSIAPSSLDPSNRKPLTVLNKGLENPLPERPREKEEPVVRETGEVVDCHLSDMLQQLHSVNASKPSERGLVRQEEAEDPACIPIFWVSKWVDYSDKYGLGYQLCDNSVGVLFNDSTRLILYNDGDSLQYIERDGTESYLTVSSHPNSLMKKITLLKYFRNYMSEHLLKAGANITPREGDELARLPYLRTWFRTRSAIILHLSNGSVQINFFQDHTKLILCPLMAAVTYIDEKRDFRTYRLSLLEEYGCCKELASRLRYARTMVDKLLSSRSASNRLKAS

[13] = target: Vascular endothelial growth factor receptor 2 (Homo sapiens) (UniProt P35968); assay: Inhibition of human KDR using myelin basic protein as substrate in presence of [gamma-33P]ATP at 1 uM after 40 mins by scintillation counter method
[14] = target: Serine/threonine-protein kinase B-raf (Homo sapiens) (UniProt P15056); assay: Inhibition of human BRAF using myelin basic protein as substrate in presence of [gamma-33P]ATP at 1 uM after 40 mins by scintillation counter method
[15] = target: SRSF protein kinase 1 (Homo sapiens) (UniProt Q96SB4); assay: Inhibition of human SRPK1 using RSRSRSRSRSRSRSR as substrate in presence of [gamma-33P]ATP at 1 uM after 40 mins by scintillation counter method
SRSF protein kinase 1 (Homo sapiens), sequence (Q96SB4 whole entry): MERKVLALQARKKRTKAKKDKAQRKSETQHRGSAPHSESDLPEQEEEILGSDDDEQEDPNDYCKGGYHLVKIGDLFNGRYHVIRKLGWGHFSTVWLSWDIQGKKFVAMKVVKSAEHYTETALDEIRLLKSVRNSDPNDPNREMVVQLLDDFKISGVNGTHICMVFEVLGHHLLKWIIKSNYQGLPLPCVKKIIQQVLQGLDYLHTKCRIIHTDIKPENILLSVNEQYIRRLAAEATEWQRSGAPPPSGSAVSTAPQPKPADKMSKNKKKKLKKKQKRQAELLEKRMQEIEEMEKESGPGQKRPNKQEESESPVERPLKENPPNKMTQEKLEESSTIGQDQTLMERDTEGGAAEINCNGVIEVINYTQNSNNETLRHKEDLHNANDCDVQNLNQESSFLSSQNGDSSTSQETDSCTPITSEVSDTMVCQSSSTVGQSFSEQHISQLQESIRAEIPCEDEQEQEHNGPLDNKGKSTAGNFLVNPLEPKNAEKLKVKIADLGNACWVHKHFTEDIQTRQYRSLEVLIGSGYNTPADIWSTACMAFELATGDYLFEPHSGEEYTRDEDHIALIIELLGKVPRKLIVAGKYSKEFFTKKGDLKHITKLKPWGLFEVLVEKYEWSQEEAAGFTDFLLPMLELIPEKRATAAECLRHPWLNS

[16] = target: Mitogen-activated protein kinase 9 (Homo sapiens) (UniProt P45984); assay: Inhibition of human JNK2alpha2 using ATF2 as substrate in presence of [gamma-33P]ATP at 1 uM after 40 mins by scintillation counter method
Mitogen-activated protein kinase 9 (Homo sapiens), sequence (P45984 whole entry, looked up): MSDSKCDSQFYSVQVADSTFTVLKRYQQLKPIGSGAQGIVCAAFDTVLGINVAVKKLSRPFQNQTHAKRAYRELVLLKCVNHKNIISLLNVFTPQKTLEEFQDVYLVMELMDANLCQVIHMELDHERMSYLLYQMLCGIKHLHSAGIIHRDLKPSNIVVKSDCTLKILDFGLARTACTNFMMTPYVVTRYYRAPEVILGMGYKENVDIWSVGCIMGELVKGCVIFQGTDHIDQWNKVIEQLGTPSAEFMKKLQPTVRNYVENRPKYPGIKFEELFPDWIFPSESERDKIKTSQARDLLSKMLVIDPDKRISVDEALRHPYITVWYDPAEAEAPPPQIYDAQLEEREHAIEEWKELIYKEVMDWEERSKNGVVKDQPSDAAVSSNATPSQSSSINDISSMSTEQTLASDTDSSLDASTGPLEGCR

[17] = target: Receptor-type tyrosine-protein kinase FLT3 (Homo sapiens) (UniProt P36888); assay: Inhibition of human Flt3 using EAIYAAPFAKKK as substrate in presence of [gamma-33P]ATP at 1 uM after 40 mins by scintillation counter method
[18] = target: ALK tyrosine kinase receptor (Homo sapiens) (UniProt Q9UM73); assay: Inhibition of human ALK using casein as substrate in presence of [gamma-33P]ATP at 1 uM after 40 mins by scintillation counter method

Row | Compound | inhibition [1] [%] | inhibition [2] [%] | inhibition [3] [%] | inhibition [4] [%] | inhibition [5] [%] | inhibition [6] [%] | inhibition [7] [%] | inhibition [8] [%] | inhibition [9] [%] | inhibition [10] [%] | inhibition [11] [%] | inhibition [12] [%] | inhibition [13] [%] | inhibition [14] [%] | inhibition [15] [%] | inhibition [16] [%] | inhibition [17] [%] | inhibition [18] [%]
1 | CC(C)n1cnc2c(Nc3cc(N)cc(Cl)c3)nc(N[C@@H]3CCCC[C@@H]3N)nc21 (racemic) | 13 | 0 | 19 | 4 | -1 | 3 | 6 | 8 | 8 | 78 | -6 | 60 | 4 | 5 | 21 | -6 | 93 | 10
2 | CC(C)n1cnc2c(Nc3cccc(Cl)c3)nc(N[C@H]3CCCC[C@@H]3N)nc21 | 4 | 2 | 5 | 5 | -6 | 2 | 10 | -6 | -2 | 22 | 3 | 49 | 16 | 10 | -1 | 1 | 19 | 7
3 | CC(C)n1cnc2c(Nc3cccc(Cl)c3)nc(N[C@@H]3CCCC[C@@H]3N)nc21 | -5 | 3 | 28 | 4 | 3 | 0 | 8 | 2 | 2 | 69 | -1 | 9 | -6 | 21 | 48 | 4 | 90 | -2
